Experiment: Thermal stability test of polyvinyl chloride sheet in Geer oven at 185° C. (Example 7 composition)
Method: A heat stabilizer (acid-capturing agent) shown in Table 3 was mixed with the above components other than the heat stabilizer in the above amounts, and the mixture was uniformly mixed. Then, it was kneaded with an open roll for 3 minutes at 180° C., to prepare a sheet having a thickness of about 1 mm. The sheet was placed in a Geer oven set at 185° C., and it was estimated for a thermal stability. […] Concerning properties required for the heat stabilizer, the heat stabilizer was required to be nonpoisonous and a low price, to have good dispersibility, to be almost free from coloration, and to give a long period of time before blackening.
In Example 7, the calcium hydroxide of the present invention as a heat stabilizer was replaced with a calcium hydroxide obtained by surface-treating a commercially available calcium hydroxide used in Comparative Example 1 (5-1), lead stearate (5-2), and A type zeolite (5-3). These cases were estimated.

A type zeolite [5-3]
Thermal stability (period of time taken until the sheet was blackened): 40 min

Reference: patent US6592834B1, “Calcium hydroxide, a process for the production thereof and use thereof” (Kabushiki Kaisha Kaisui Kagaku Kenkyujo, priority 1999, dated 2003)
